The structures appear in SMILES notation. Calls of active or inactive are those of the source. The rule behind the calls is not given here.

The target of this assay is Rac GTPase-activating protein 1 (Homo sapiens) (UniProt Q9H0H5). The assay is described as follows: MgcRacGAP inhibitors, selectivity among RhoGAPs, dose response, selectivity assay, biochemical (AID 652153). Conditions: MgcRacGAP GAP activity on Rac1F28L, Biomol green phosphate.
Chain of Rac GTPase-activating protein 1 (Homo sapiens) (Q9H0H5 whole entry, looked up): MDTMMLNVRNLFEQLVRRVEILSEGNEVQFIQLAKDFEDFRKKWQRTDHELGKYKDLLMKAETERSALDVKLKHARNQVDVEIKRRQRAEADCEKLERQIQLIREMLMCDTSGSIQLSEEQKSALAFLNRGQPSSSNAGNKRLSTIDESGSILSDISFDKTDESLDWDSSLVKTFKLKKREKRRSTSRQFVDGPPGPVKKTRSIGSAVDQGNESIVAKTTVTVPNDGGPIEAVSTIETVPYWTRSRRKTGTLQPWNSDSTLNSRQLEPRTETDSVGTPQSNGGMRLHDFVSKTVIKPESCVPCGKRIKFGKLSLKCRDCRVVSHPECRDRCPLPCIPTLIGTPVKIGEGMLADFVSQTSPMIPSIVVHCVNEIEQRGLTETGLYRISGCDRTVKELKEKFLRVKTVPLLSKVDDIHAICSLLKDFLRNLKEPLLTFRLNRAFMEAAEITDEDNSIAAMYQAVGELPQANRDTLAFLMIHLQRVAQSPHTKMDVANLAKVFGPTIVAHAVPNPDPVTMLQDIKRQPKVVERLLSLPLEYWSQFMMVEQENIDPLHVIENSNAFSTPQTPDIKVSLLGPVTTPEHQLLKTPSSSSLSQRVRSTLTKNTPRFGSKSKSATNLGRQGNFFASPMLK
With `COc1ccc(-n2sc3ccc(F)cc3c2=O)cc1`, the IC50 entry is “inactive”. The entry for `COc1ccc(-n2sc3ccccc3c2=O)cc1` is “inactive”; for `Cc1cc(C)c2c(=N)c3ccccc3n(CCCCCCCCn3c4ccccc4c(=N)c4c(C)cc(C)nc43)c2n1` it is “inactive”. Take `CN(C)c1ccc(C=c2c3cc(O)ccc3n3c2cc(-c2ccccc2)[n+]3C)cc1`: the IC50 entry is “inactive”.

As for `CN(C)c1ccc(/C=C/c2cc[n+](C)c3ccccc23)cc1`, the IC50 entry was “inactive”. The entry for `O=C1C=CC(=O)c2c(O)c(N3CCN(CCOCCO)CC3)c(Br)c(O)c21` is “inactive”; for `O=C(O)c1cccc(-n2sc3ccccc3c2=O)c1` it is “inactive”; for `O=c1c2cc(F)ccc2sn1-c1ccccc1Cl` it is 920 nM.

On to `O=c1c2ccccc2sn1-c1cccc(Cl)c1`, for which the IC50 is 690 nM. As for `CN(C)c1nc(=NCc2cccs2)ss1`, the IC50 result is “inactive”.

`O=c1c2ccc(F)cc2sn1-c1ccccc1`: the IC50 result is “inactive”. Under `COc1ccc(Nc2ccc3ccccc3c2)cc1` stands “inactive”; under `CC1=NNC(=O)C1Br` (stereo unspecified), “inactive”.

With `O=C1C(=Cc2ccco2)CCC1=Cc1ccco1`, the IC50 entry was “inactive”. Under `COC(=O)c1cccc(-n2sc3ccccc3c2=O)c1` stands “inactive”; under `O=c1c2ccccc2sn1-c1ccc(F)cc1`, “inactive”; under `O=C(Nc1ccccc1Cl)/C(Cl)=C(\Cl)S(=O)c1ccccc1` (stereo unspecified), “inactive”. The entry for `O=C(O)c1cc(N2N=C(C(F)(F)F)/C(=C/C=C/c3ccco3)C2=O)ccc1Cl` is “inactive”; for `O=C1NC(=S)N(c2ccccc2)C(=O)/C1=C/c1ccco1` it is “inactive”.

Consider `Nc1n[nH]c(=S)n1/N=C1/C(=O)Nc2ccccc21`, for which the IC50 entry is “inactive”.

As for `Cc1cc(N)c2cc(NC(=O)/C=C/c3ccccc3Cl)ccc2n1`, the IC50 entry was “inactive”. Turning to `CC(=O)Nc1ccc2sn(-c3ccccc3)c(=O)c2c1`, the IC50 is 643 nM. Consider `Cc1ccc(C)c(-n2sc3ccc(F)cc3c2=O)c1`, for which the IC50 result is “inactive”.

Take `Nc1ccc(OCc2ccco2)cc1`: the IC50 entry is “inactive”. In the case of `CCN1CCN(Cc2ccc(NC(=O)c3ccc(C)c(/C=C/c4cnc(Nc5cc(N6CCNCC6)nc(C)n5)cn4)c3)cc2C(F)(F)F)CC1`, the IC50 entry is “inactive”.

`Cn1ccc(=Nc2ccc(NC(=O)c3ccc(N=c4ccn(C)c5ccc([N+](=O)[O-])cc45)cc3)cc2)cc1`: the half-inhibitory concentration (IC50) is 939 nM. Under `O=C1C=CC(=O)c2c(O)c(N3CCN(CCO)CC3)c(Cl)c(O)c21` stands “inactive”; under `CN(C)c1ncc(C2=C(Cl)C(=O)C(N3CCCC3)=C(Cl)C2=O)s1`, “inactive”; under `O=C(O)C1CSC(c2ccco2)N1` (stereo unspecified), “inactive”.

On to `O=c1c2cc(F)ccc2sn1-c1ccccc1`, for which the IC50 result is “inactive”. Under `C[n+]1c(-c2ccc(C=NNC(=O)c3ccc(C(=O)NN=Cc4ccc(-c5cn6ccccc6[n+]5C)cc4)cc3)cc2)cn2ccccc21` stands “inactive”. Take `Cc1ccc(-n2sc3cc(F)ccc3c2=O)c(C)c1`: the IC50 entry is “inactive”. The entry for `O=c1c2ccccc2sn1-c1ccccc1F` is “inactive”; for `O=C1C(Cl)=C(NC(=O)c2ccccc2)C(=O)C(Cl)=C1NC(=O)c1ccccc1` it is “inactive”. The entry for `Cc1c(Cl)sn(-c2ccc(Cl)cc2)c1=O` is “inactive”. Under `O=c1c2sc3ccccc3c2[nH]c(=S)n1CCN1CCOCC1` stands “inactive”; under `CCN(CC)c1ccc(C(=C2C=CC(=[N+](CC)CC)C=C2)c2ccc(N(CC)CC)cc2)cc1`, “inactive”; under `CSc1nc(N)c(N=Nc2ccc([As](=O)(O)O)cc2)c(=O)[nH]1`, “inactive”. Turning to `O=c1c2ccccc2sn1-c1ccc(Cl)cc1`, the IC50 result is “inactive”. Take `COc1ccc(NC2CCCN(C(=O)C3(C)CCCCC3)C2)cc1` (stereo unspecified): the IC50 entry was “inactive”.

On to `O=c1c2ccccc2sn1-c1ccc(Cl)cc1Cl`, for which the IC50 entry is “inactive”. As to `O=C(O)c1cc(N2C(=O)C=CC2=O)cc(N2C(=O)C=CC2=O)c1`, the IC50 result is “inactive”. `CC1OC(CC(=O)O)CC2=C1C(=O)c1c(O)cccc1C2=O` (stereo unspecified): the IC50 entry was “inactive”. The entry for `O=C1C=CC(=O)N1c1ccccc1N1C(=O)C=CC1=O` is “inactive”; for `O=C1C(SCCO)=C(SCCO)C(=O)c2ccccc21` it is “inactive”; for `COc1ccc(/C=N/Nc2cc(C)nc3ccc(OC)cc23)c(OC)c1` it is “inactive”.

The record behind these values is PubChem BioAssay AID652153 (Molecular Libraries Program, Specialized Chemistry Center, …, 2013).
